Experimental data as given in publication PMC12703733, “Probing Guanidino Pendant or Bridged Groups in Cyclic Antimicrobial Peptides Derived from Temporin L: A Strategy to Improve Efficacy against Gram-Negative Bacteria” (Journal of Medicinal Chemistry, 2025).
≈ marks a conversion by molar mass, not a printed value. Where two headings read alike, the source gives them in different places. Bridge positions count the residues as written; N and C are the ends. Square brackets hold non-standard residues; d marks the D form. Peptide text beside a SMILES is read from it. Pro(cis-4-guanidino) = NC(N)=N[C@@H]1CN[C@H](C(=O)O)C1; Phe(4-guanidino) = N=C(N)Nc1ccc(C[C@H](N)C(=O)O)cc1

What was measured:
in vitro = in vitro ADME
Method: Peptide stability was evaluated by modifying previously described procedures. , The assays were performed in human serum and in the presence of proteolytic enzymes such as trypsin and chymotrypsin. For human serum stability, 2 mM peptide stock solutions were prepared in water and mixed with human serum (from male AB plasma, USA origin, sterile-filtered, Merck/Sigma-Aldrich, USA) to obtain a final concentration of 200 μM [human plasma/stock solution (9:1, v/v)]. The mixtures were incubated at 37 ± 1 °C, and 50 μL aliquots were taken at predetermined time intervals (0, 1, 2, 4, 8, and 24 h). Protease activity was quenched by adding 100 μL of acetonitrile (MeCN). The resulting cloudy suspensions were cooled to 4 °C for 30 min and centrifugated at 12,000 rpm for 10 min to remove the serum proteins. Then, the supernatants were analyzed by analytical HPLC (Shimadzu Nexera Liquid Chromatograph LC-30AD) which was equipped with a Phenomenex Kinetex reversed-phase column (C18, 5 μm, 100 Å, 150 mm × 4.6 mm) with a flow rate of 1 mL/min using a gradient of MeCN (0.1% TFA) in water (0.1% TFA), from 10 to 70% over 15 min, and UV detection at 220 nm. For enzyme stability, each peptide peptide (200 μM) was incubated with trypsin (0.5 μM) in PBS 1× (pH 7.2) or with chymotrypsin (0.005 μM) in Tris–HCl (100 mM, pH 7.8). Samples (50 μL) were collected at 0, 1, 2, 4, and 24 h, quenched with 0.5% TFA in water, and analyzed by HPLC under chromatographic conditions as described above. All experiments were conducted in triplicate. The percentage of intact peptides at each time point was determined by integrating the corresponding HPLC peak areas.

circular dichroism = settings: water; pH ns; 25 °C; 150 uM
[1] = type: cell-based
Method: (§1) For the evaluation of peptides’ cytotoxicity, the human immortalized keratinocytes (HaCaT cells), purchased from AddexBio (San Diego, CA, USA), and BEAS-2B were used. HaCaT cells were cultured in Dulbecco’s modified Eagle’s medium supplemented with 4 mM glutamine (DMEM), 10% heat-inactivated fetal bovine serum (FBS), and 0.1 mg/mL of penicillin and streptomycin, at 37 °C and 5% CO2. BEAS-2B cells were cultured in RPMI, supplemented with 2 mM glutamine (DMEM), 10% heat-inactivated fetal bovine serum (FBS), 1 mM sodium pyruvate, and 0.1 mg/mL of penicillin and streptomycin, at 37 °C and 5% CO2. Cytotoxicity was tested in vitro using a colorimetric assay that relies on the intracellular reduction of the yellow 3-(4,5-dimethylthiazol-2-yl)-2,5-diphenyltetrazolium bromide salt (MTT) by mitochondrial dehydrogenases of metabolically active cells in formazan crystals (purple). About 4 × 10^4 HaCaT and BEAS-2B cells, suspended in DMEM supplemented with 2% FBS, were plated in triplicate wells of a 96-well microtiter plate. The plate was incubated overnight at 37 °C and 5% CO2. Then, the cells were treated with different concentrations of the peptide (from 100 to 3.12 μM) in a fresh serum-free medium for 2 h and for a longer time (24 h). Following peptide treatment, the medium was removed, and MTT (0.5 mg/mL) solution in Hank’s buffer (136 mM NaCl, 4.2 mM Na2HPO4, 4.4 mM KH2PO4, 5.4 mM KCl, 4.1 mM NaHCO3, pH 7.2, supplemented with 20 mM D-glucose) was added to each well of the plate, that was then incubated for 4 h at 37 °C and 5% CO2. The purple formazan crystals were dissolved using acidified 2-propanol and a microplate reader (Infinite M200; Tecan, Salzburg, Austria) was used to measure the absorbance of each well at 570 nm. The percentage of cell viability was calculated compared to the control, which consisted of cells without any peptide treatment (corresponding to 100% viability) and all data represent the mean of three independent experiments ± SEM.

B. megaterium BM11 = test: microbe, parasite or virus in culture; type: cell-based; settings: BM11
Method: (§2) Bacterial strains used in this study were the Gram-positive S. aureus ATCC 25923, S. epidermidis ATCC 12228, B. megaterium BM11, S. [NT] 27591, E. faecalis ATCC 29212 and the Gram-negative E. coli ATCC 25922, P. aeruginosa ATCC 27853, A. baumannii ATCC 19606, E. coli D21 and P. aeruginosa PAO1. […] Bacterial cells in the mid log phase were diluted in Muller Hinton (MH) at a concentration of 2 × 10^6 cell/mL. […] Ciprofloxacin was used as antibiotic control. The plate was then incubated at 37 °C. MICs were obtained from three identical readings of four independent experiments.

S. aureus ATCC 25923 = test: microbe, parasite or virus in culture; type: cell-based; settings: ATCC 25923
Method: as §2

E. coli D21 = test: microbe, parasite or virus in culture; type: cell-based; settings: D21
Method: as §2

S. agalactiae ATCC 27591 = test: microbe, parasite or virus in culture; type: cell-based; settings: ATCC 27591
Method: as §2

[2] = tested on: S. epidermidis ATCC 12228; test: microbe, parasite or virus in culture; type: cell-based; settings: ATCC 12228
Method: as §2

P. aeruginosa ATCC 27853 = test: microbe, parasite or virus in culture; type: cell-based; settings: ATCC 27853
Method: as §2

A. baumannii ATCC 19606 = test: microbe, parasite or virus in culture; type: cell-based; settings: ATCC 19606
Method: as §2

E. faecalis ATCC 29212 = test: microbe, parasite or virus in culture; type: cell-based; settings: ATCC 29212
Method: as §2

E. coli ATCC 25922 = test: microbe, parasite or virus in culture; type: cell-based; settings: ATCC 25922
Method: as §2

[3] = type: cell-based, human; settings: human; for viability at 2 h, 3.12 µM / viability at 2 h, 6.25 µM / viability at 2 h, 12.5 µM / viability at 2 h, 25 µM / viability at 2 h, 50 µM / viability at 2 h, 100 µM / viability at 24 h, 3.12 µM / viability at 24 h, 6.25 µM / viability at 24 h, 12.5 µM / viability at 24 h, 25 µM / viability at 24 h, 50 µM / viability at 24 h, 100 µM: Cell viability (%)
Method: as §1

P. aeruginosa PAO1 = test: microbe, parasite or virus in culture; type: cell-based; settings: PAO1
Method: as §2

Row | SMILES | helicity (circular dichroism) | MIC (B. megaterium BM11) | MIC (S. aureus ATCC 25923) | MIC (E. coli D21) | MIC (S. agalactiae ATCC 27591) | MIC [2] | MIC (P. aeruginosa ATCC 27853) | MIC (A. baumannii ATCC 19606) | MIC (E. faecalis ATCC 29212) | MIC (E. coli ATCC 25922) | viability at 2 h, 3.12 µM [3] | viability at 2 h, 6.25 µM [3] | viability at 2 h, 12.5 µM [3] | viability at 2 h, 25 µM [3] | viability at 2 h, 50 µM [3] | viability at 2 h, 100 µM [3] | viability at 24 h, 3.12 µM [3] | viability at 24 h, 6.25 µM [3] | viability at 24 h, 12.5 µM [3] | viability at 24 h, 25 µM [3] | further results
1 | CC[C@H](C)[C@H](NC(=O)[C@H](CCCNC(=N)N)NC(=O)[C@H]1CCC(=O)NCCCC[C@H](NC(=O)[C@H](Cc2ccccc2)NC(=O)[C@H](Cc2c[nH]c3ccccc23)NC(=O)[C@@H]2C[C@H](NC(=N)N)CN2C(=O)[C@@H](NC(=O)[C@@H](N)Cc2ccccc2)C(C)C)C(=O)N[C@@H](CCCCN)C(=O)N[C@@H](Cc2ccccc2)C(=O)N[C@H](CC(C)C)C(=O)N1)C(=O)N[C@@H](CC(C)C)C(N)=O [Peptide 7, FV(4-guanidino)PWF[KKFle]RIL] (H-FV[Pro(cis-4-guanidino)]WFKKF[dL][dE]RIL-NH2; lactam 6-10) | 1% | 0.78 µM (≈ 1.37 µg/mL) | 6.25 µM (≈ 11 µg/mL) | 3.12 µM (≈ 5.49 µg/mL) | 1.56 µM (≈ 2.75 µg/mL) | 3.12 µM (≈ 5.49 µg/mL) | 12.5 µM (≈ 22 µg/mL) | 3.12 µM (≈ 5.49 µg/mL) | 12.5 µM (≈ 22 µg/mL) | 3.12 µM (≈ 5.49 µg/mL) | 101% | 100% | 102% | 72% | 16% | 8% | 99 ± 5% | 98 ± 1% | 95 ± 4% | 85 ± 2% | remaining at 4 h, 200 μM (in vitro; isolated enzyme chymotrypsin, pH 7.8): ~20%; remaining at 4 h, 200 μM (in vitro; isolated enzyme trypsin, pH 7.2): 10%; viability at 2 h, 3.12 µM ([1]; Cell viability (%)): 105%; viability at 2 h, 6.25 µM ([1]; Cell viability (%)): 117%; viability at 2 h, 12.5 µM ([1]; Cell viability (%)): 80%; viability at 2 h, 25 µM ([1]; Cell viability (%)): 28%; viability at 2 h, 50 µM ([1]; Cell viability (%)): 6%; viability at 24 h, 3.12 µM ([1]; Cell viability (%)): 111%; viability at 24 h, 6.25 µM ([1]; Cell viability (%)): 104%; viability at 24 h, 12.5 µM ([1]; Cell viability (%)): 90%; viability at 24 h, 25 µM ([1]; Cell viability (%)): 34%; viability at 24 h, 50 µM ([1]; Cell viability (%)): 9%; viability at 24 h, 100 µM ([1]; Cell viability (%)): 4%; viability at 12.5 µM ([1]; cell viability): ~85%; CC50 at 24 h ([3]; CC50): 37 µM; viability at 24 h, 50 µM [3]: 18 ± 3%; viability at 24 h, 100 µM [3]: 2 ± 1%
2 | CC[C@H](C)[C@H](NC(=O)[C@H](CCCNC(=N)N)NC(=O)[C@H]1CCC(=O)NCCCC[C@H](NC(=O)[C@H](Cc2ccccc2)NC(=O)[C@H](Cc2c[nH]c3ccccc23)NC(=O)[C@@H]2CCCN2C(=O)[C@@H](NC(=O)[C@@H](N)Cc2ccccc2)C(C)C)C(=O)N[C@@H](CCCCN)C(=O)N[C@@H](Cc2ccc(NC(=N)N)cc2)C(=O)N[C@H](CC(C)C)C(=O)N1)C(=O)N[C@@H](CC(C)C)C(N)=O [Peptide 10, FVPWF[KK(p-guanidino)Fle]RIL] (H-FVPWFKK[Phe(4-guanidino)][dL][dE]RIL-NH2; lactam 6-10) | 3% | 0.78 µM (≈ 1.37 µg/mL) | 100 µM (≈ 176 µg/mL) | 6.25 µM (≈ 11 µg/mL) | 6.25 µM (≈ 11 µg/mL) | 12.5 µM (≈ 22 µg/mL) | 50 µM (≈ 88.1 µg/mL) | 6.25 µM (≈ 11 µg/mL) | 50 µM (≈ 88.1 µg/mL) | 6.25 µM (≈ 11 µg/mL) | 105% | 110% | 112% | 112% | 101% | 82% | 98 ± 3% | 104 ± 2% | 103 ± 3% | 106 ± 3% | MIC (P. aeruginosa PAO1): 25 µM (≈ 44 µg/mL); viability at 24 h, 50 µM [3]: 116 ± 5%; viability at 24 h, 100 µM [3]: 95 ± 6%
